The source made the active and inactive calls. How the calls were made is not given here.

Holding throughout (test): ABPP selectivity across brain serine hydrolases – biochemical, gel-based competitive ABPP, mouse brain membrane, set 1, selectivity assay for DAGLb inhibitor project, late-stage follow-up (AID 602311)
For one assay, the system named is APEH. The note with it: gel-based competitive ABPP fluorescence, at 10 µM, stronger effect = higher value.
Assay [1] deals with Monoacylglycerol lipase ABHD6 (Mus musculus) (UniProt Q8R2Y0). The note with it: gel-based competitive ABPP fluorescence, at 10 µM, stronger effect = higher value.
Chain of Monoacylglycerol lipase ABHD6 (Mus musculus) (Q8R2Y0 whole entry, looked up): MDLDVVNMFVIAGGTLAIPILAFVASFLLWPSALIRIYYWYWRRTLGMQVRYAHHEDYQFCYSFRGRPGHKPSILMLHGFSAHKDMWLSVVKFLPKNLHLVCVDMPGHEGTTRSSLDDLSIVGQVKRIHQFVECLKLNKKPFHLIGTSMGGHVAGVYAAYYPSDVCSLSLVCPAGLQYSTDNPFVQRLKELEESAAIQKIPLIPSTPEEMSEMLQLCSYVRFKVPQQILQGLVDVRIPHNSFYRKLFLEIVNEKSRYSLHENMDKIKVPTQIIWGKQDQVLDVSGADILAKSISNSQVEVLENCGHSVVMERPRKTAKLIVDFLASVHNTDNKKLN
The subject of another assay is KIAA1363. The following applies: gel-based competitive ABPP fluorescence, at 10 µM, stronger effect = higher value.
A further assay deals with FAAH. The following applies: gel-based competitive ABPP fluorescence, at 10 µM, stronger effect = higher value.
The target of assay [2] is Acyl-protein thioesterase 1 (Mus musculus) (UniProt P97823). The following applies: gel-based competitive ABPP fluorescence, LYPLA1, at 10 µM, stronger effect = higher value.
Chain of Acyl-protein thioesterase 1 (Mus musculus) (P97823 whole entry, looked up): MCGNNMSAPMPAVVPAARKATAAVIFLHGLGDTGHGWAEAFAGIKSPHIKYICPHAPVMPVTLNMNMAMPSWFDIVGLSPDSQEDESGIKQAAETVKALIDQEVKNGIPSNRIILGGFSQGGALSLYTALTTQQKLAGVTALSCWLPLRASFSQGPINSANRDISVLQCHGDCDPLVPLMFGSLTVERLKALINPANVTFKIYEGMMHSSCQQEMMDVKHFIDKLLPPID
A further assay concerns MAGL. The note with it: gel-based competitive ABPP fluorescence, at 10 µM, stronger effect = higher value.
The subject of a further assay is ABHD12. The following applies: gel-based competitive ABPP fluorescence, at 10 µM, stronger effect = higher value.
The next assay relates to LYPLA2. The note with it: gel-based competitive ABPP fluorescence, at 10 µM, stronger effect = higher value.

For `O=C(c1ccc(-c2ccc(-c3cn(C(=O)N4CCCCC4Cc4ccccc4)nn3)cc2)cc1)N1CCCCC1` (stereo not given), the inhibition (commonly the share of the control response that was lost under treatment) is 0% (inactive) in the assay with APEH; 85% in assay [1]; 10% (inactive) in the assay with KIAA1363; 10% (inactive) with FAAH; 0% (inactive) in assay [2]; 0% (inactive) with MAGL. The inhibition in the assay with ABHD12 and in the assay on LYPLA2 was 0% (inactive) throughout.
In the case of `O=C(N1CCCCC1Cc1ccccc1)n1cc(-c2ccc(OC(F)(F)F)cc2)nn1` (stereo not given), the inhibition with APEH was 0% (inactive); in assay [1], 90%; with KIAA1363, 40% (inactive); with FAAH it was 65%; in assay [2], 0% (inactive); in the assay on MAGL, 40% (inactive). Also, the inhibition in the assay with ABHD12 and in the assay on LYPLA2 was 0% (inactive) each time.
Turning to `O=C(N1CCCCC1Cc1ccccc1)n1cc(-c2ccc(-c3ccccc3Cl)cc2)nn1` (stereo not given), the inhibition in the assay with APEH is 0% (inactive); in assay [1], 95%; in the assay on KIAA1363 it was 20% (inactive); in the assay with FAAH, 30% (inactive); in assay [2], 0% (inactive); with MAGL it was 10% (inactive). For the same compound, the inhibition with ABHD12 and in the assay with LYPLA2 was 0% (inactive) throughout.
Regarding `O=C(N1CCCCC1Cc1ccccc1)n1cc(-c2ccc(-c3cccc(C(F)(F)F)c3)cc2)nn1` (stereo not given), the inhibition is 0% (inactive) in the assay on APEH; 85% in assay [1]; 10% (inactive) with KIAA1363; 65% in the assay with FAAH; 0% (inactive) in assay [2]; 1% (inactive) with MAGL. Moreover, the inhibition with ABHD12 and with LYPLA2 was 0% (inactive) each time.
In the case of `O=C(N1CCCCC1Cc1ccccc1)n1cc(-c2ccc(-c3ccccc3)cc2)nn1` (stereo not given), the inhibition was 0% (inactive) in the assay on APEH; 95% in assay [1]; 0% (inactive) in the assay on KIAA1363; 0% (inactive) in the assay with FAAH; 0% (inactive) in assay [2]; 0% (inactive) in the assay with MAGL. Moreover, the inhibition with ABHD12 and with LYPLA2 was 0% (inactive) throughout.

The record behind these values is PubChem BioAssay AID602311 (The Scripps Research Institute Molecular Screening Center, 2012).
